≈ marks a conversion by molar mass, not a printed value.
What was measured:
[1] = test system: Candida albicans ATCC 38246; test: Antifungal plate test, inhibition of Candida albicans ATCC 38246; assay type: cell-based; conditions: for MIC: Candida albicans, ATCC38246, read-out: MIC to inhibit growth
Experimental: (§1) The following represents the typical procedure used. Compound to be tested was placed on sterile dried 1/4" plate disks, and allowed to dry. Agar plates were seeded with fungi and allowed to solidify. The impregnated disks were placed on the seeded Agar surface and incubated for the time required for the particular culture. Results are expressed in MIC (μg/ml) to inhibit growth.

[2] = test system: Candida albicans ATCC 38247; test: Antifungal plate test, inhibition of Candida albicans ATCC 38247; assay type: cell-based; conditions: for MIC: Candida albicans, ATCC38247, read-out: MIC to inhibit growth
Experimental: as §1

[3] = test system: pinch skin graft from male DBA/2 donors; test: Survival time of pinch skin graft; assay type: in vivo, male BALB/c mice (recipients); conditions: intraperitoneally; mean ± S.D.
Experimental: (§2) Immunosuppressive activity was evaluated in an in vitro standard pharmacological test procedure to measure lymphocyte proliferation (LAF) and in two in vivo standard pharmacological test procedures. The first in vivo procedure was a popliteal lymph node (PLN) test procedure which measured the effect of compounds of this invention on a mixed lymphocyte reaction and the second in vivo procedure evaluated the survival time of a pinch skin graft.
The second in vivo test procedure is designed to determine the survival time of pinch skin graft from male DBA/2 donors transplanted to male BALB/c recipients. The method is adapted from Billingham R. E. and Medawar P. B., J. Exp. Biol. 28:385-402, (1951). Briefly, a pinch skin graft from the donor is grafted on the dorsum of the recipient as a homograft, and an autograft is used as control in the same region. […] Untreated recipients serve as rejection control. The graft is monitored daily and observations are recorded until the graft becomes dry and forms a blackened scab. This is considered as the rejection day. The mean graft survival time (number of days±S.D.) of the drug treatment group is compared with the control group.

[4] = test system: Candida albicans ATCC 38248; test: Antifungal plate test, inhibition of Candida albicans ATCC 38248; assay type: cell-based; conditions: for MIC: Candida albicans, ATCC38248, read-out: MIC to inhibit growth
Experimental: as §1

[5] = test system: cells from the thymus of normal BALB/c mice; test: Comitogen-induced thymocyte proliferation procedure (LAF); assay type: cell-based; conditions: in vitro, rapamycin 1.0, 72 hours culture with PHA and IL-1
Experimental: as §2
Briefly, cells from the thymus of normal BALB/c mice are cultured for 72 hours with PHA and IL-1 and pulsed with tritiated thymidine during the last six hours. […] Cells are harvested and incorporated; radioactivity is determined. Inhibition of lymphoproliferation is assessed in percent change in counts per minute from non-drug treated controls. The results are expressed by the following ratio: [formula]

Candida albicans 3669 = test: Antifungal plate test, inhibition of Candida albicans 3669; assay type: cell-based; conditions: strain 3669; for MIC: Candida albicans, read-out: MIC to inhibit growth
Experimental: as §1

[6] = test system: Candida albicans ATCC 10231; test: Antifungal plate test, inhibition of Candida albicans ATCC 10231; assay type: cell-based; conditions: for MIC: Candida albicans, ATCC10231, read-out: MIC to inhibit growth
Experimental: as §1

[7] = test system: mixed lymphocyte reaction in popliteal lymph node; test: In vivo popliteal lymph node (PLN) test procedure; design: species or system C3H mice (BALB/c donors); conditions: for PLN Assay (ratio): in vivo, rapamycin 1.0, p.o. daily Day 0 to Day 4
Experimental: as §2
A mixed lymphocyte reaction (MLR) occurs when lymphoid cells from genetically distinct animals are combined in tissue culture. Each stimulates the other to undergo blast transformation which results in increased DNA synthesis that can be quantified by the incorporation of tritiated thymidine. Since stimulating a MLR is a function of disparity at Major Histocompatibility antigens, an in vivo popliteal lymph node (PLN) test procedure closely correlates to host vs. graft disease. Briefly, irradiated spleen cells from BALB/c donors are injected into the right hind foot pad of recipient C3H mice. The drug is given daily, p.o. from Day 0 to Day 4. On Day 3 and Day 4, tritiated thymidine is given i.p., b.i.d. On Day 5, the hind popliteal lymph nodes are removed and dissolved, and radioactivity counted. The corresponding left PLN serves as the control for the PLN from the injected hind foot. Percent suppression is calculated using the non-drug treated animals as allogenic control. […] Results are expressed by the following ratio: [formula]

[8] = alone or in combination with picibanil; cited from earlier work
IgE-like antibodies = conditions: in vivo; cited from earlier work
transplant rejection = conditions: cited from earlier work
Candida albicans = conditions: in vitro and in vivo; cited from earlier work
multiple sclerosis = conditions: in vivo; cited from earlier work

Compound | MIC to inhibit growth [1] | MIC to inhibit growth [2] | Skin Graft Assay (days + SD), mean graft survival time [3] | MIC to inhibit growth [4] | LAF Assay (ratio) [5] | MIC to inhibit growth (Candida albicans 3669) | MIC to inhibit growth [6] | PLN Assay (ratio) [7] | MIC [1] | MIC [2] | MIC [4] | MIC (Candida albicans 3669) | MIC [6] | antitumor activity [8] | Percent suppression (PLN) ([7]; 6 mg/kg, p.o.) | inhibition of formation of IgE-like antibodies (IgE-like antibodies) | inhibition of transplant rejection / immunosuppressive effect (transplant rejection) | antifungal activity (Candida albicans) | effect in experimental allergic encephalomyelitis model (multiple sclerosis)
1,2,3,4-Tetrahydrorapamycin [Example 2] | 0.05 µg/mL | 0.006 µg/mL | 7.0 ± 0.9 days | 0.0125 µg/mL | 0.036 | 0.0125 µg/mL | 0.006 µg/mL | – | – | – | – | – | – | – | – | – | – | – | –
CO[C@H]1C[C@@H]2CC[C@@H](C)[C@@](O)(O2)C(=O)C(=O)N2CCCC[C@H]2C(=O)O[C@H]([C@H](C)C[C@@H]2CC[C@@H](O)[C@H](OC)C2)CC(=O)[C@H](C)/C=C(\C)[C@@H](O)[C@@H](OC)C(=O)[C@H](C)C[C@H](C)CC/C=C/C=C/1C [Example 1, 1,2-Dihydrorapamycin] | – | – | 7.3 ± 0.9 days | – | – | – | – | -1.67 | 0.2 µg/mL (≈ 0.218 µM) | > 0.4 µg/mL | 0.2 µg/mL (≈ 0.218 µM) | 0.2 µg/mL (≈ 0.218 µM) | 0.4 µg/mL (≈ 0.437 µM) | – | – | – | – | – | –
CO[C@H]1C[C@@H]2CC[C@@H](C)[C@@](O)(O2)C(=O)C(=O)N2CCCC[C@H]2C(=O)O[C@H]([C@H](C)C[C@@H]2CC[C@@H](O)[C@H](OC)C2)CC(=O)[C@H](C)/C=C(\C)[C@@H](O)[C@@H](OC)C(=O)[C@H](C)C[C@H](C)/C=C/C=C/C=C/1C [Rapamycin, rapamycin] | – | – | 12.0 ± 1.7 days | – | – | – | – | 1.0 | 0.025 µg/mL (≈ 0.0273 µM) | 0.003 µg/mL (≈ 0.00328 µM) | 0.006 µg/mL (≈ 0.00656 µM) | 0.025 µg/mL (≈ 0.0273 µM) | 0.003 µg/mL (≈ 0.00328 µM) | antitumor activity | 86% | effectively inhibited the formation of IgE-like antibodies | effective in inhibiting transplant rejection | antifungal activity, particularly against Candida albicans, both in vitro and in vivo | effective in the experimental allergic encephalomyelitis model
C=CC[C@@H]1/C=C(\C)C[C@H](C)C[C@H](OC)[C@H]2O[C@@](O)(C(=O)C(=O)N3CCCC[C@H]3C(=O)O[C@H](/C(C)=C/[C@@H]3CC[C@@H](O)[C@H](OC)C3)[C@H](C)[C@@H](O)CC1=O)[C@H](C)C[C@@H]2OC [FK-506] | – | – | – | – | – | – | – | – | – | – | – | – | – | – | – | – | effective as immunosuppressive agents | – | –

From US5023262A, “Hydrogenated rapamycin derivatives” (American Home Products Corporation, priority 1990, dated 1991)
